Source: patent US7947293B2, “Aqueous pharmaceutical formulation” (Arpida AG, priority 2008, dated 2011)
Read-outs that look alike come from different tables or passages of the source.

Key:
Type in all cases: physicochemical
[1] = Stress heating of standard formulation (simulated long term storage), HPLC; settings: 20 mg/mL in 30% propylene glycol in water, normal atmosphere
Description: Within the scope of the present invention various standard aqueous formulations of 5-[(2RS)-2-cyclopropyl-7,8-dimethoxy-2H-1-benzopyran-5-ylmethyl]-pyrimidine-2,4-diamine and its acid addition salts were tested for long term stability. For example, vials of 5-[(2RS)-2-cyclopropyl-7,8-dimethoxy-2H-1-benzopyran-5-ylmethyl]-pyrimidine-2,4-diamine methanesulfonic acid salt were prepared in 30% propylene glycol in water at a concentration of iclaprim of 20 mg/mL. In order to examine the stability of the above standard formulations a model system was used to simulate long term storage conditions. In this model system, the solutions to be tested are stress heated at 40° C. and 70° C. for at least 12 days. The analysis of the solutions after completion of the heating step were made by means of methods well known to those skilled in the art such as, for example, HPLC measurements. Vials of 5-[(2RS)-2-cyclopropyl-7,8-dimethoxy-2H-1-benzopyran-5-ylmethyl]-pyrimidine-2,4-diamine methanesulfonic acid salt (20 mg/mL) were prepared in 30% propylene glycol in Millipore water under normal atmosphere. In order to examine the stability of the above formulation a model experiment was developed wherein the solutions to be tested are stress heated. It is well know in the art that by heating a test sample at a temperature higher than room temperature (about 20° C.) such as between 40° C. and 70° C. for a prolonged period of time, long storage conditions can be simulated. The analysis of the solutions after completion of the heating step was made by means of visual examinations and HPLC measurements.

[2] = Stability of iclaprim under simulated sterilization conditions at pH<3.5, HPLC; settings: 30% propylene glycol or 10% glycofurol in water
Description: Further stability tests of the above standard formulations were performed, wherein the pH was adjusted with citric acid below 3.5 under simulated sterilization conditions, such as 100° C. for 2 h. Vials of 5-[(2RS)-2-cyclopropyl-7,8-dimethoxy-2H-1-benzopyran-5-ylmethyl]-pyrimidine-2,4-diamine methanesulfonic acid salt were prepared in 30% propylene glycol or 10% glycofurol in water. The pH of the so obtained solution was adjusted to pH 3 with 1M citric acid or to pH 1 with 1N hydrochloric acid, and the vials were heated in order to simulate a sterilization process. The analysis of the solutions after completion of the heating step was performed by means of visual examinations and HPLC measurements.

[3] = Solubility of iclaprim methanesulfonic acid salt in aqueous/organic solutions, HPLC of supernatant; settings: for solubility at 24 h: thermodynamic from solid
Description: A fixed amount of iclaprim mesylate was suspended in the different aqueous/organic solutions. The suspension was stirred at room temperature for 24 hours. The supernatant of the solutions were analyzed by HPLC to determine the amount of iclaprim in the solution.

Row | SMILES | % iclaprim ([1]; 12 days, 40° C.) | % iclaprim ([1]; 12 days, 70° C.) | % iclaprim ([1]; 45 days, about 20° C.) | % iclaprim ([1]; fresh solution, 0 min, about 20° C.) | % iclaprim ([2]; 1 h, 37° C., pH 1) | % iclaprim ([2]; 2 h, 100° C., pH 1) | % iclaprim ([2]; 2 h, 100° C., pH 3) | % iclaprim ([2]; 3 h, 37° C., pH 1) | % iclaprim ([2]; 3 h, 37° C., pH 3) | % iclaprim ([2]; fresh solution, 0 min, about 20° C., pH 4.5 (reference, no pH adjustment)) | solubility at 24 h ([3]; 10% propylene glycol in saline 0.9%, aqueous with cosolvent or surfactant or cyclodextrin, 10% (saline 0.9%) propylene glycol, room temperature, 24 hours, read-out: Solubility calculated form HPLC measurements) | solubility at 24 h ([3]; aqueous with cosolvent or surfactant or cyclodextrin, 10% aqueous propylene glycol, room temperature, 24 hours, read-out: Solubility calculated form HPLC measurements) | solubility at 24 h ([3]; saline or isotonic, Saline 0.9%, room temperature, 24 hours, read-out: Solubility calculated form HPLC measurements) | solubility at 24 h ([3]; saline solution with reduced propylene glycol, aqueous with cosolvent or surfactant or cyclodextrin, in saline solution, reduced propylene glycol, pH above 4.0, read-out: maximal solubility achieved) | concentration at which precipitation was observed ([3]; saline solutions, e.g. 10% propylene glycol saline solution) | solubility at 24 h ([3]; water, room temperature, 24 hours, read-out: Solubility calculated form HPLC measurements)
1 | COc1cc(Cc2cnc(N)nc2N)c2c(c1OC)OC(C1CC1)C=C2 (racemic) [iclaprim, 5-[(2RS)-2-cyclopropyl-7,8-dimethoxy-2H-1-benzopyran-5-ylmethyl]-pyrimidine-2,4-diamine] | 97.0% | 90.0% | 97.5% | 99.1% | 99.0% | 60.0% | 86.5% | 96.3% | 99.0% | 99.1% | – | – | – | – | – | –
2 | COc1cc(Cc2cnc(N)nc2N)c2c(c1OC)OC(C1CC1)C=C2.CS(=O)(=O)O (racemic) [iclaprim methanesulfonic acid salt, 5-[(2RS)-2-cyclopropyl-7,8-dimethoxy-2H-1-benzopyran-5-ylmethyl]-pyrimidine-2,4-diamine methanesulfonic acid salt] | – | – | – | – | – | – | – | – | – | – | 7500 µg/mL | 27800 µg/mL | 1200 µg/mL | 7500 µg/mL | above 7.5 mg/mL | 18100 µg/mL
